According to the supplement of paper PMC10307832:

Key:
Assay in all cases: relative viability (nuclei count vs DMSO), 5 days (fraction); higher = more cells survive
[1] = compound: O=C1NC(=O)[C@@H](c2cn3c4c(cccc24)CCC3)[C@@H]1c1c[nH]c2ccccc12 [Tivantinib] + N=C(N)NC(=N)NCCc1ccccc1 [Phenformin] (partner 250 µM)
Summary of the method: (§1)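 Relative viability is defined as nuclei in treated wells over nuclei in vehicle wells. Duplicate plates were run and medians reported. Lung cancer cell lines in 1536-well plates were dosed by pin tool one day after seeding, with one drug or with a fixed anchor-drug dose plus five library-drug doses (not always all listed) in √10 steps, and nuclei were counted after 5 days.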

[2] = compound: O=C1NC(=O)[C@@H](c2cn3c4c(cccc24)CCC3)[C@@H]1c1c[nH]c2ccccc12 [Tivantinib] + Cc1cc(Nc2cc(N3CCN(C)CC3)nc(Sc3ccc(NC(=O)C4CC4)cc3)n2)n[nH]1 [Tozasertib] (partner 0.1 µM)
Summary of the method: as §1

[3] = compound: O=C1NC(=O)[C@@H](c2cn3c4c(cccc24)CCC3)[C@@H]1c1c[nH]c2ccccc12 [Tivantinib] + Nc1ncn([C@H]2C[C@H](O)[C@@H](CO)O2)c(=O)n1 [Decitabine] (partner 2 µM)
Summary of the method: as §1

[4] = compound: CC1(COc2ccc3c(c2)ncn3-c2ccc3cccc(N4CCC(N)CC4)c3n2)COC1 [Crenolanib] + CC1(C)CCC(c2ccc(Cl)cc2)=C(CN2CCN(c3ccc(C(=O)NS(=O)(=O)c4ccc(N[C@H](CCN5CCOCC5)CSc5ccccc5)c(S(=O)(=O)C(F)(F)F)c4)cc3)CC2)C1 [Navitoclax] (partner 0.5 µM)
Summary of the method: as §1

UMC-11
relative viability ([1]; first compound 0.01 µM): 0.331 | relative viability ([1]; first compound 0.03162 µM): 0.338 | relative viability ([1]; first compound 0.1 µM): 0.289 | relative viability ([1]; first compound 0.3162 µM): 0.371 | relative viability ([2]; first compound 0.01 µM): 0.202 | relative viability ([2]; first compound 0.1 µM): 0.178 | relative viability ([2]; first compound 0.3162 µM): 0.188 | relative viability ([3]; first compound 0.01 µM): 0.574 | relative viability ([3]; first compound 0.03162 µM): 0.532 | relative viability ([3]; first compound 0.1 µM): 0.527 | relative viability ([3]; first compound 0.3162 µM): 0.434 | relative viability ([4]; first compound 0.01 µM): 0.333 | relative viability ([4]; first compound 0.03162 µM): 0.331 | relative viability ([4]; first compound 0.1 µM): 0.301 | relative viability ([4]; first compound 0.3162 µM): 0.341 | relative viability ([4]; first compound 1 µM): 0.31
